Patent EP0041644B1 (priority 1980, dated 1981)

Columns and labels:
[1] = tested on: L1210 Leukemia; test: L1210 Leukemia - Test 2; assay type: in vivo, mice
[2] = tested on: B16 Melanoma; test: B16 Melanoma - Test 3 (sc trocar fragments); assay type: in vivo, mice

N.N.[Cl][Pt][Cl] [Cis-DDP, cis-diammine dichloroplatinum (II)]
Average Weight Change,g ([1]; 0.4 mg/kg/inj ip, qd 1→9): +1.6 g
Effect MST % T/C ([1]; 0.4 mg/kg/inj ip, qd 1→9): 100 % T/C
MST Days ([1]; 0.4 mg/kg/inj ip, qd 1→9): 7.0 days
Survivors Day 5(30) ([1]; 0.4 mg/kg/inj ip, qd 1→9): 6/6
Average Weight Change ([1]; 0.8 mg/kg/inj ip, qd 1→9): -0.7 g
Effect MST % T/C ([1]; 0.8 mg/kg/inj ip, qd 1→9): 107 % T/C
MST Days ([1]; 0.8 mg/kg/inj ip, qd 1→9): 7.5 days
Survivors Day 5(30) ([1]; 0.8 mg/kg/inj ip, qd 1→9): 6/6
Average Weight Change ([1]; 1.6 mg/kg/inj ip, qd 1→9): -2.2 g
Effect MST % T/C ([1]; 1.6 mg/kg/inj ip, qd 1→9): 157 % T/C
MST Days ([1]; 1.6 mg/kg/inj ip, qd 1→9): 11.0 days
Survivors Day 5(30) ([1]; 1.6 mg/kg/inj ip, qd 1→9): 6/6
Average Weight Change,g ([1]; 2 mg/kg/inj iv, d.1, 5 & 9): +1.7 g
Effect MST % T/C ([1]; 2 mg/kg/inj iv, d.1, 5 & 9): 100 % T/C
MST Days ([1]; 2 mg/kg/inj iv, d.1, 5 & 9): 7.0 days
Survivors Day 5(30) ([1]; 2 mg/kg/inj iv, d.1, 5 & 9): 6/6
Average Weight Change ([1]; 2.4 mg/kg/inj ip, qd 1→9): -3.3 g
Effect MST % T/C ([1]; 2.4 mg/kg/inj ip, qd 1→9): 214 % T/C
MST Days ([1]; 2.4 mg/kg/inj ip, qd 1→9): 15.0 days
Survivors Day 5(30) ([1]; 2.4 mg/kg/inj ip, qd 1→9): 6/6
Average Weight Change ([1]; 4 mg/kg/inj ip, d.1): -0.7 g
Effect MST % T/C ([1]; 4 mg/kg/inj ip, d.1): 136 % T/C
MST Days ([1]; 4 mg/kg/inj ip, d.1): 9.5 days
Survivors Day 5(30) ([1]; 4 mg/kg/inj ip, d.1): 6/6
Average Weight Change,g ([1]; 4 mg/kg/inj iv, d.1): +1.8 g
Effect MST % T/C ([1]; 4 mg/kg/inj iv, d.1): 100 % T/C
MST Days ([1]; 4 mg/kg/inj iv, d.1): 7.0 days
Survivors Day 5(30) ([1]; 4 mg/kg/inj iv, d.1): 6/6
Average Weight Change,g ([1]; 4 mg/kg/inj iv, d.1, 5 & 9): +0.8 g
Effect MST % T/C ([1]; 4 mg/kg/inj iv, d.1, 5 & 9): 100 % T/C
MST Days ([1]; 4 mg/kg/inj iv, d.1, 5 & 9): 7.0 days
Survivors Day 5(30) ([1]; 4 mg/kg/inj iv, d.1, 5 & 9): 6/6
Average Weight Change ([1]; 6 mg/kg/inj ip, d.1): -1.8 g
Effect MST % T/C ([1]; 6 mg/kg/inj ip, d.1): 171 % T/C
MST Days ([1]; 6 mg/kg/inj ip, d.1): 12.0 days
Survivors Day 5(30) ([1]; 6 mg/kg/inj ip, d.1): 6/6
Average Weight Change ([1]; 6 mg/kg/inj iv, d.1): -0.2 g
Effect MST % T/C ([1]; 6 mg/kg/inj iv, d.1): 114 % T/C
MST Days ([1]; 6 mg/kg/inj iv, d.1): 8.0 days
Survivors Day 5(30) ([1]; 6 mg/kg/inj iv, d.1): 6/6
Average Weight Change ([1]; 6 mg/kg/inj iv, d.1, 5 & 9): -1.1 g
Effect MST % T/C ([1]; 6 mg/kg/inj iv, d.1, 5 & 9): 164 % T/C
MST Days ([1]; 6 mg/kg/inj iv, d.1, 5 & 9): 11.5 days
Survivors Day 5(30) ([1]; 6 mg/kg/inj iv, d.1, 5 & 9): 6/6
Average Weight Change ([1]; 8 mg/kg/inj ip, d.1): -2.8 g
Effect MST % T/C ([1]; 8 mg/kg/inj ip, d.1): 186 % T/C
MST Days ([1]; 8 mg/kg/inj ip, d.1): 13.0 days
Survivors Day 5(30) ([1]; 8 mg/kg/inj ip, d.1): 6/6
Average Weight Change ([1]; 8 mg/kg/inj iv, d.1): -3.7 g
Effect MST % T/C ([1]; 8 mg/kg/inj iv, d.1): 129 % T/C
MST Days ([1]; 8 mg/kg/inj iv, d.1): 9.0 days
Survivors Day 5(30) ([1]; 8 mg/kg/inj iv, d.1): 6/6
Average Weight Change ([1]; 8 mg/kg/inj iv, d.1, 5 & 9): -2.1 g
Effect MST % T/C ([1]; 8 mg/kg/inj iv, d.1, 5 & 9): 179 % T/C
MST Days ([1]; 8 mg/kg/inj iv, d.1, 5 & 9): 12.5 days
Survivors Day 5(30) ([1]; 8 mg/kg/inj iv, d.1, 5 & 9): 6/6
Average Weight Change ([1]; 10 mg/kg/inj ip, d.1): -4.4 g
Effect MST % T/C ([1]; 10 mg/kg/inj ip, d.1): 214 % T/C
MST Days ([1]; 10 mg/kg/inj ip, d.1): 15.0 days
Survivors Day 5(30) ([1]; 10 mg/kg/inj ip, d.1): 6/6
Average Weight Change ([1]; 10 mg/kg/inj iv, d.1): -3.9 g
Effect MST % T/C ([1]; 10 mg/kg/inj iv, d.1): 143 % T/C
MST Days ([1]; 10 mg/kg/inj iv, d.1): 10.0 days
Survivors Day 5(30) ([1]; 10 mg/kg/inj iv, d.1): 6/6
maximum T/C ([1]; iv, multi-dose regimen): 179%
maximum T/C ([1]; multi-dose therapy ip (qd 1→9)): 207-214%
maximum T/C ([1]; single ip doses, ip L1210): 214%
Average Weight Change ([2]; 0.8 mg/kg/inj ip, qd 1→9): -0.4 g
Effect MST %TC ([2]; 0.8 mg/kg/inj ip, qd 1→9): 113 %TC
MST Days ([2]; 0.8 mg/kg/inj ip, qd 1→9): 34.5 days
Average Weight Change ([2]; 1.6 mg/kg/inj ip, qd 1→9): -2.4 g
Effect MST %TC ([2]; 1.6 mg/kg/inj ip, qd 1→9): 118 %TC
MST Days ([2]; 1.6 mg/kg/inj ip, qd 1→9): 36.0 days
Average Weight Change ([2]; 2.4 mg/kg/inj ip, qd 1→9): -3.5 g
Effect MST %TC ([2]; 2.4 mg/kg/inj ip, qd 1→9): 97 %TC
MST Days ([2]; 2.4 mg/kg/inj ip, qd 1→9): 29.5 days
Average Weight Change ([2]; 4 mg/kg/inj iv, d.1, 5 & 9): -0.6 g
Effect MST %TC ([2]; 4 mg/kg/inj iv, d.1, 5 & 9): 156 %TC
MST Days ([2]; 4 mg/kg/inj iv, d.1, 5 & 9): 47.5 days
Average Weight Change ([2]; 6 mg/kg/inj iv, d.1, 5 & 9): -2.2 g
Effect MST %TC ([2]; 6 mg/kg/inj iv, d.1, 5 & 9): 131 %TC
MST Days ([2]; 6 mg/kg/inj iv, d.1, 5 & 9): 40.0 days
Average Weight Change ([2]; 8 mg/kg/inj iv, d.1, 5 & 9): -2.8 g
Effect MST %TC ([2]; 8 mg/kg/inj iv, d.1, 5 & 9): 125 %TC
MST Days ([2]; 8 mg/kg/inj iv, d.1, 5 & 9): 38.0 days
Survivors Day 10 (60) ([2]; 8 mg/kg/inj iv, d.1, 5 & 9): 9/10
